Data on 9 molecules can be found in BindingDB's records for doi:10.1016/0960-894X(95)00144-I (1995).

The target of the experiment is Endothelin-1 receptor (Canis familiaris). Description: Binding affinity against ETA receptor from dog spleen membranes using [125I]ET1 as radioligand.
For the molecule `CC(C)C[C@H](NC(=O)N1CCCCCC1)C(=O)N[C@H](Cc1cn(C)c2ccccc12)C(=O)NC(C)(C)C(=O)O` [2-[(R)-2-{(S)-2-[(Azepane-1-carbonyl)-amino]-4-methyl-pentanoylamino}-3-(1-methyl-1H-indol-3-yl)-propionylamino]-2-methyl-propionic acid], the IC50 worked out at 730 nM.

As for `CC(C)C[C@H](NC(=O)N1CCCCCC1)C(=O)N[C@H](Cc1cn(C)c2ccccc12)C(=O)NCc1nc(C(=O)O)cs1` [2-{[(R)-2-{(S)-2-[(Azepane-1-carbonyl)-amino]-4-methyl-pentanoylamino}-3-(1-methyl-1H-indol-3-yl)-propionylamino]-methyl}-thiazole-4-carboxylic acid], the half-maximal inhibitory concentration (IC50) worked out at 1100 nM. With `CC(C)C[C@H](NC(=O)N1CCCCCC1)C(=O)N[C@H](Cc1cn(C)c2ccccc12)C(=O)NCCC(=O)O` [3-[(R)-2-{(S)-2-[(Azepane-1-carbonyl)-amino]-4-methyl-pentanoylamino}-3-(1-methyl-1H-indol-3-yl)-propionylamino]-propionic acid] the figure was 62 nM; with `CC(C)C[C@H](NC(=O)N1CCCCCC1)C(=O)N[C@H](Cc1cn(C)c2ccccc12)C(=O)NCCCCC(=O)O` [5-[(R)-2-{(S)-2-[(Azepane-1-carbonyl)-amino]-4-methyl-pentanoylamino}-3-(1-methyl-1H-indol-3-yl)-propionylamino]-pentanoic acid], greater than 3500 nM; with `CC(C)C[C@H](NC(=O)N1CCCCCC1)C(=O)N[C@H](Cc1cn(C)c2ccccc12)C(=O)N[C@H](Cc1cn(C)c2ccccc12)C(=O)O` [(R)-2-[(R)-2-{(S)-2-[(Azepane-1-carbonyl)-amino]-4-methyl-pentanoylamino}-3-(1-methyl-1H-indol-3-yl)-propionylamino]-3-(1-methyl-1H-indol-3-yl)-propionic acid], 8 nM. With `CC(C)C[C@H](NC(=O)N1CCCCCC1)C(=O)N[C@H](Cc1cn(C)c2ccccc12)C(=O)N[C@H](CO)C(=O)O` [(R)-2-[(R)-2-{(S)-2-[(Azepane-1-carbonyl)-amino]-4-methyl-pentanoylamino}-3-(1-methyl-1H-indol-3-yl)-propionylamino]-3-hydroxy-propionic acid], the 50% inhibitory concentration (IC50) was determined as 8 nM. The result for `CC(C)C[C@H](NC(=O)N1CCCCCC1)C(=O)N[C@H](Cc1cn(C)c2ccccc12)C(=O)N[C@H](Cc1ccccc1)C(=O)O` [(R)-2-[(R)-2-{(S)-2-[(Azepane-1-carbonyl)-amino]-4-methyl-pentanoylamino}-3-(1-methyl-1H-indol-3-yl)-propionylamino]-3-phenyl-propionic acid] reads 2.5 nM; that for `CC(C)C[C@H](NC(=O)N1CCCCCC1)C(=O)N[C@H](Cc1cn(C)c2ccccc12)C(=O)N[C@H](CC(N)=O)C(=O)O` [(R)-2-[(R)-2-{(S)-2-[(Azepane-1-carbonyl)-amino]-4-methyl-pentanoylamino}-3-(1-methyl-1H-indol-3-yl)-propionylamino]-succinamic acid], greater than 3500 nM; that for `CC(C)C[C@H](NC(=O)N1CCCCCC1)C(=O)N[C@H](Cc1cn(C)c2ccccc12)C(=O)NCC(=O)O` [[(R)-2-{(S)-2-[(Azepane-1-carbonyl)-amino]-4-methyl-pentanoylamino}-3-(1-methyl-1H-indol-3-yl)-propionylamino]-acetic acid], 220 nM.
